Source: PubChem BioAssay (NCI)
Several values for one entry are separate records, joined by “and”; a condition that tells them apart may be missing. Identical values can stand only once.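 Five compound concentrations were applied to cells in 96-well plates for 48 hours; endpoints were derived by simple linear interpolation of the resulting dose-response curve. GI50 is the concentration that inhibits growth by half. TGI denotes the concentration required for complete inhibition of growth.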

Key:
Test in all cases: growth of human tumour cells (NCI), 48 h
HCT-116 colon = test system: HCT-116 colon
SK-MEL-2 melanoma = test system: SK-MEL-2 melanoma
MDA-MB-435 = test system: MDA-MB-435
HCC-2998 colon = test system: HCC-2998 colon
HOP-92 NSCLC = test system: HOP-92 NSCLC
BT-549 breast = test system: BT-549 breast
PC-3 prostate = test system: PC-3 prostate
A549 NSCLC = test system: A549 NSCLC
HCT-15 colon = test system: HCT-15 colon
SN12C renal = test system: SN12C renal

SMILES	GI50 (HCT-116 colon)	TGI (HCT-116 colon) [µM]	GI50 (SK-MEL-2 melanoma)	TGI (SK-MEL-2 melanoma)	GI50 (MDA-MB-435) [µM]	TGI (MDA-MB-435)	GI50 (HCC-2998 colon) [µM]	TGI (HCC-2998 colon) [µM]	GI50 (HOP-92 NSCLC) [µM]	TGI (HOP-92 NSCLC)	GI50 (BT-549 breast) [µM]	TGI (BT-549 breast)	GI50 (PC-3 prostate)	TGI (PC-3 prostate)	GI50 (A549 NSCLC) [µM]	TGI (A549 NSCLC)	GI50 (HCT-15 colon)	TGI (HCT-15 colon)	GI50 (SN12C renal) [µM]	TGI (SN12C renal) [µM]
COC(=O)[C@@]12OC[C@]34[C@H]([C@@H](O)[C@@H]1O)[C@@]1(C)[C@H](O)C(=O)C=C(C)[C@@H]1C[C@H]3OC(=O)C(OC(C)=O)[C@@H]24 (stereo not given in full)	0.022 µM	0.0503	0.0574 µM	0.319 µM	0.0319	0.148 µM	0.0168	0.111	0.0364	0.309 µM	0.0182	0.0561 µM	0.0334 µM	0.134 µM	0.0381	0.294 µM	0.101 µM	0.458 µM	0.046	0.307
Cc1cc(Cl)ccc1Nc1nc(C(F)(F)F)ccc1C(=O)N/N=C/c1ccc(Cl)cc1	2.46 µM	9.87	2.18 µM	9.2 µM	1.42	3.89 µM	1.45	4.7	1.94	6.85 µM	1.34	4.71 µM	2.13 µM	9.31 µM	3.02	27.9 µM	0.895 µM	13.1 µM	2.22	9
O=C1c2cccc(NCCN=Cc3cc([N+](=O)[O-])ccc3O)c2C(=O)c2c(NCCN=Cc3cc([N+](=O)[O-])ccc3O)cccc21	1.28 µM	81.5	20.5 µM	96.4 µM	4.28	> 100 µM	5.87	> 100	3.03	84.1 µM	36.9	> 100 µM	3.25 µM	> 100 µM	3.89	> 100 µM	30.3 µM	> 100 µM	2.45	> 100
COc1cc2ccccc2oc1=O	–	> 100	–	> 100 µM	–	> 100 µM	–	> 100	–	> 100 µM	–	> 100 µM	–	> 100 µM	–	> 100 µM	–	> 100 µM	–	> 100
CC1OC(n2c3ccccc3c3c4c(c5c6ccccc6[nH]c5c32)C(=O)N(CCN[C@@H]2CCC[C@H]2N)C4=O)CC(O)C1O (stereo not given in full)	1.32 µM	5.54	3.68 µM	11.8 µM	1.44	6.46 µM	3.23	11.4	2.31	9.06 µM	1.74	8.85 µM	1.55 µM	6.13 µM	2.48	9.17 µM	5.88 µM	12.6 µM	1.48	6.5
C#CC1(O)C(COP(=O)(O)OC(COCCCCCCCCCCCCCCCCCC)COP(=O)(O)OCC2OC(n3cc(F)c(=O)[nH]c3=O)CC2O)OC(n2ccc(N)nc2=O)C1O (stereo not given)	< 0.024 µM and 0.142 µM	> 100	< 0.049 µM and 0.432 µM	1.88 µM and 3.48 µM	–	3.08 µM and 5.9 µM	–	> 28.4	33.4	10.6 µM and > 95.6 µM	–	> 42.8 µM and 8.71 µM	0.947 µM and 0.417 µM	24.3 µM and 11.4 µM	–	> 38.3 µM and 22.6 µM	0.134 µM and 0.335 µM	> 74.9 µM and 34.4 µM	–	> 65.1
Cc1cc(NCCN(C(C)C)C(C)C)nc(/N=C(\N)Nc2ccc(Cl)c(C(F)(F)F)c2)n1	0.275 µM	2.38	0.208 µM	0.388 µM	0.196	0.389 µM	0.214	0.469	0.163	1.01 µM	1.64	3.59 µM	0.596 µM	2.45 µM	0.356	1.11 µM	0.276 µM	0.913 µM	1.34	2.87
C=CCC1(O)c2ccccc2C(=O)c2c(NCCN(CC(=O)OCC)CC(=O)OCC)cccc21 (stereo not given)	> 100 µM	> 100	> 100 µM	> 100 µM	> 100	> 100 µM	> 100	> 100	> 100	> 100 µM	> 100	> 100 µM	97.1 µM	> 100 µM	> 100	> 100 µM	69.5 µM	> 100 µM	57	> 100
CNC(=O)c1cccc2cc(Oc3ccnc4cc(OCC5(N)CC5)c(OC)cc34)ccc12	5.2 µM	17.8	14.3 µM	32 µM	3.09	12 µM	11	26.2	6.89	21 µM	5.63	22.1 µM	11 µM	25.9 µM	10.9	26.3 µM	6.56 µM	20.2 µM	6.01	24.1
O=c1oc(Cl)c(Cl)c2ccccc12	31.9 µM	71.8	14.1 µM	44.1 µM	22.3	45.9 µM	44.3	73.9	3.25	27.9 µM	20.8	41.2 µM	17.8 µM	35.2 µM	54.2	> 100 µM	23.1 µM	61.3 µM	14.8	31.4
CCCCC[C@H]1C/C=C2/C(=O)C=C[C@@H]2C/C=C\CCCC(=O)O[C@@H](CCCCC)C/C=C2/C(=O)C=C[C@@H]2C/C=C\CCCC(=O)O1	0.0896 µM	0.333	0.385 µM	1.22 µM	0.0959	0.412 µM	0.422	0.816	0.593	1.2 µM	0.32	1.02 µM	0.285 µM	0.806 µM	0.528	1.35 µM	0.428 µM	1.01 µM	0.105	0.796
COc1cc(Nc2c(C#N)cnc3cc(OCCCN4CCN(C)CC4)c(OC)cc23)c(Cl)cc1Cl	0.746 µM	4.71	2.97 µM	8.67 µM	1.97	5.36 µM	3.08	9.21	2.08	10.5 µM	6.78	18.3 µM	5.02 µM	16.7 µM	2.74	13.5 µM	1.21 µM	11.8 µM	0.308	14.4
